# Counter-ions that a name gives are not always drawn.
# Tested on: adiponectin
# Experiment: Comparative test for adiponectin production enhancing effect: plasma adiponectin concentration by radioimmunoassay
# Assay type: in vivo
# Settings: female db/db mice, one week oral; Compound A 0.3 mg/kg vs B 3 mg/kg (P<0.001) and vs C 30 mg/kg (P<0.01), Tukey's multiple comparison test
# Procedure: Plasma glucose levels and plasma adiponectin concentrations were compared between each of the groups respectively. The plasma adiponectin concentration was measured using a radioimmunoassay kit (Mouse Adiponectin RIA Kit, Linco Research, Inc.). Plasma was diluted by 100 times using a buffer provided with the kit, and measurement was conducted using the diluted plasma (5 μL) (final dilution rate: 2000 times). The radioactivity was measured using a gamma counter, and adiponectin concentration was calculated from the measured radioactivity (measurement unit: μg/mL).
structure (smiles),measurement,value
"COc1ccc2nc(COc3ccc(CC4SC(=O)NC4=O)cc3)n(C)c2c1 (stereo not shown) [Compound A, 5-[4-(6-Methoxy-1-methyl-1H-benzimidazol-2-ylmethoxy)benzyl]thiazolidine-2,4-dione hydrochloride]",plasma adiponectin concentration compared with Compound B and Compound C administration groups,significant increasing effect
